Assay: Inhibition of Zika virus NS2B (45 to 96 residues)/N-terminal thrombin cleavage fused and His6-tagged NS3 (1 to 177 residues) protease expressed in Escherichia coli using Bz-Nle-Lys-Lys-Arg-AMC as substrate preincubated for 10 mins followed by substrate addition and measured for 5 mins by fluorophotometric analysis

SMILES	Ki [µM]
N=C(N)NCCC[C@@H]1NC(=O)[C@H](CCCCN)NC(=O)CNC(=O)[C@@H]2CSC(=N2)c2cc(ccn2)C(=O)NCCC[C@@H](C(N)=O)NC(=O)[C@H](CCCCN)NC1=O	1.76
N=C(N)NCCC[C@@H]1NC(=O)[C@H](CCCCN)NC(=O)CNC(=O)[C@@H]2CSC(=N2)c2cc(ccn2)C(=O)NCC[C@@H](C(N)=O)NC(=O)[C@H](CCCCN)NC1=O	14.3

Source: ChEMBL document CHEMBL4706743, “2-Cyanoisonicotinamide Conjugation: A Facile Approach to Generate Potent Peptide Inhibitors of the Zika Virus Protease” (ACS Med Chem Lett, 2021)
